Assays:
Format in all cases: biochemical
[1] = target: ProfilerPro Kinase Selectivity Assay Kit kinases (Homo sapiens, UniProt O00141); settings: SGK1; 1 μM compound concentration
[2] = target: ProfilerPro Kinase Selectivity Assay Kit kinases (Homo sapiens, UniProt O14757); settings: CHK1; 1 μM compound concentration
[3] = target: ProfilerPro Kinase Selectivity Assay Kit kinases (Homo sapiens, UniProt O75116); settings: ROCK2; 1 μM compound concentration
[4] = target: ProfilerPro Kinase Selectivity Assay Kit kinases (Homo sapiens, UniProt O75582); settings: MSK1; 1 μM compound concentration
[5] = target: ProfilerPro Kinase Selectivity Assay Kit kinases (Homo sapiens, UniProt O95819); settings: HGK; 1 μM compound concentration
ProfilerPro Kinase Selectivity Assay Kit kinases (Homo sapiens, UniProt O95819), sequence (O95819 2-1239 limits assumed): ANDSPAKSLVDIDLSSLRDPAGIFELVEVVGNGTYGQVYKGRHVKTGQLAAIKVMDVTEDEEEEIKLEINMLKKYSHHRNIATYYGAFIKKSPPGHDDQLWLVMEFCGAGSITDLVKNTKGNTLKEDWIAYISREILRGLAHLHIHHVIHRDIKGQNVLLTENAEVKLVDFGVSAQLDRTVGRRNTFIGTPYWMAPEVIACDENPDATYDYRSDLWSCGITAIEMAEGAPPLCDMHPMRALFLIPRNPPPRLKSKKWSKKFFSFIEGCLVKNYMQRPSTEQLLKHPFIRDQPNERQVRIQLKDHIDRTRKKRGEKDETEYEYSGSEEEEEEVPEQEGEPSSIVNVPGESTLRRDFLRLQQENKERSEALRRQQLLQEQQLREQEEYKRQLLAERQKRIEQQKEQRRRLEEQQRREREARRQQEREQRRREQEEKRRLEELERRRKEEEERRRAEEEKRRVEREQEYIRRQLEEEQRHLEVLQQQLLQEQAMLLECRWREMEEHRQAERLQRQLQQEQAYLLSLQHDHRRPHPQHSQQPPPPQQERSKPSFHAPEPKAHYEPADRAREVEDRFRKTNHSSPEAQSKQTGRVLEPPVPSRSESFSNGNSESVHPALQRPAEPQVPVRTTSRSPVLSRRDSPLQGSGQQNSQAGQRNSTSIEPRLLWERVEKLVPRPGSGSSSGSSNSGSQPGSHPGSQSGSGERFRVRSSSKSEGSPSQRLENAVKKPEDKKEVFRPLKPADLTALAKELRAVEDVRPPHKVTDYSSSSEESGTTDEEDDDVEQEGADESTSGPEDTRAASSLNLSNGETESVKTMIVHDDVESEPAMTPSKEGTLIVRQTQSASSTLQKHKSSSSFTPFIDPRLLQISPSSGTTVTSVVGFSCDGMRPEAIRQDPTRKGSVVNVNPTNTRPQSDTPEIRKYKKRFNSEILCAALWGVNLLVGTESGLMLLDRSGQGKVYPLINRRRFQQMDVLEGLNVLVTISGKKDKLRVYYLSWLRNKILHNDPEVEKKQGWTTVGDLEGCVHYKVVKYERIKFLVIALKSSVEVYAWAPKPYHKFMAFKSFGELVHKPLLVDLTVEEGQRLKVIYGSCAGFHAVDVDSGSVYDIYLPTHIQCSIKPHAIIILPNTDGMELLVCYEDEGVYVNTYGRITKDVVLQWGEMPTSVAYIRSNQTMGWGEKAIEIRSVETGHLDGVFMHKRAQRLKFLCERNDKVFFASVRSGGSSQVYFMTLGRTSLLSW

[6] = target: ProfilerPro Kinase Selectivity Assay Kit kinases (Homo sapiens, UniProt O96017); settings: CHK2; 1 μM compound concentration
[7] = target: ProfilerPro Kinase Selectivity Assay Kit kinases (Homo sapiens, UniProt P00519); settings: ABL; 1 μM compound concentration
[8] = target: ProfilerPro Kinase Selectivity Assay Kit kinases (Homo sapiens, UniProt P04049); settings: cRAF; 1 μM compound concentration
[9] = target: ProfilerPro Kinase Selectivity Assay Kit kinases (Homo sapiens, UniProt P06239); settings: LCK; 1 μM compound concentration
ProfilerPro Kinase Selectivity Assay Kit kinases (Homo sapiens, UniProt P06239), sequence (P06239 2-509 limits assumed): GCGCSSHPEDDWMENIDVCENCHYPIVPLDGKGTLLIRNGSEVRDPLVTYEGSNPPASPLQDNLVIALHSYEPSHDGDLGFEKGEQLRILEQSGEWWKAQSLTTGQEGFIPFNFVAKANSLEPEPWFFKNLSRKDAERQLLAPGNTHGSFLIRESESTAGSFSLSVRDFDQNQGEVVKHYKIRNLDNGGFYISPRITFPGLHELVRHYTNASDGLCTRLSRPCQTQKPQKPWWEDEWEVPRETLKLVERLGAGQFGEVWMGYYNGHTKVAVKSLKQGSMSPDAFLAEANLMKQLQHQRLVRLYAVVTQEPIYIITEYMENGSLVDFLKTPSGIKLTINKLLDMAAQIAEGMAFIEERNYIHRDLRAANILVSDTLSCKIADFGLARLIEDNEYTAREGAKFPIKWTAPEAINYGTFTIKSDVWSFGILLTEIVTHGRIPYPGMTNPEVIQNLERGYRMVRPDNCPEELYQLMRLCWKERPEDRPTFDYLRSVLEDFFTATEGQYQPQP

[10] = target: ProfilerPro Kinase Selectivity Assay Kit kinases (Homo sapiens, UniProt P06241); settings: FYN; 1 μM compound concentration
ProfilerPro Kinase Selectivity Assay Kit kinases (Homo sapiens, UniProt P06241), sequence (P06241 2-537 limits assumed): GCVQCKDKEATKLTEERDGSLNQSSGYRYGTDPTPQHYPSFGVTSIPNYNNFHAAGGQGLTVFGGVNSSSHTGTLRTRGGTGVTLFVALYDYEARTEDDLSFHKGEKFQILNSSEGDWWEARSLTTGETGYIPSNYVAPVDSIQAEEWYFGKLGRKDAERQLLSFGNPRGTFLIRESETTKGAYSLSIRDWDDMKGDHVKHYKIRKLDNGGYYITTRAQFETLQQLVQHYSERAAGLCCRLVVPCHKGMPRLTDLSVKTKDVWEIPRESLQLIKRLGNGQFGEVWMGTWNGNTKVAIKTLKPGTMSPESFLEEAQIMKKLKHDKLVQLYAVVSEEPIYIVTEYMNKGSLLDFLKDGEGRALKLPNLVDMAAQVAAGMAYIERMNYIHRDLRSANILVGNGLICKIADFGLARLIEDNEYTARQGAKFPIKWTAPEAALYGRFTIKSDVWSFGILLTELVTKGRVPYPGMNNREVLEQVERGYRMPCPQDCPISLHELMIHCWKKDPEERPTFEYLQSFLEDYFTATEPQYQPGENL

[11] = target: ProfilerPro Kinase Selectivity Assay Kit kinases (Homo sapiens, UniProt P07948); settings: LYN; 1 μM compound concentration
ProfilerPro Kinase Selectivity Assay Kit kinases (Homo sapiens, UniProt P07948), sequence (P07948 2-512 limits assumed): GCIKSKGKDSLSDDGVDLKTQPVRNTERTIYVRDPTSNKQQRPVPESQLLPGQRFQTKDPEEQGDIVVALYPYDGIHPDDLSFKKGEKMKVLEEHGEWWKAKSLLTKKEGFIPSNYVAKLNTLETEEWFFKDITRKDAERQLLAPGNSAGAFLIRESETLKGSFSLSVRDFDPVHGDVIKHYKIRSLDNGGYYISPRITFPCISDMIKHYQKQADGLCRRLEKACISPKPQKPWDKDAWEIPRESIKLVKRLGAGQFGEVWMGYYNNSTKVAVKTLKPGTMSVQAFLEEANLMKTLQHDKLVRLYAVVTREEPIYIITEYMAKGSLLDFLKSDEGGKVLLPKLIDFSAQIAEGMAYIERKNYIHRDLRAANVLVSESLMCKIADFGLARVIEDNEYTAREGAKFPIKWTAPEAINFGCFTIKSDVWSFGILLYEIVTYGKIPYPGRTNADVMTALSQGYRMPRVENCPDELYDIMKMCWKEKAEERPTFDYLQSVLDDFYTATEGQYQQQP

[12] = target: ProfilerPro Kinase Selectivity Assay Kit kinases (Homo sapiens, UniProt P08069); settings: IGF1R; 1 μM compound concentration
[13] = target: ProfilerPro Kinase Selectivity Assay Kit kinases (Homo sapiens, UniProt P08581); settings: cMET; 1 μM compound concentration
[14] = target: ProfilerPro Kinase Selectivity Assay Kit kinases (Homo sapiens, UniProt P17612); settings: PKA alpha; 1 μM compound concentration
[15] = target: ProfilerPro Kinase Selectivity Assay Kit kinases (Homo sapiens, UniProt P27361); settings: ERK1; 1 μM compound concentration
ProfilerPro Kinase Selectivity Assay Kit kinases (Homo sapiens, UniProt P27361), sequence (P27361 2-379 limits assumed): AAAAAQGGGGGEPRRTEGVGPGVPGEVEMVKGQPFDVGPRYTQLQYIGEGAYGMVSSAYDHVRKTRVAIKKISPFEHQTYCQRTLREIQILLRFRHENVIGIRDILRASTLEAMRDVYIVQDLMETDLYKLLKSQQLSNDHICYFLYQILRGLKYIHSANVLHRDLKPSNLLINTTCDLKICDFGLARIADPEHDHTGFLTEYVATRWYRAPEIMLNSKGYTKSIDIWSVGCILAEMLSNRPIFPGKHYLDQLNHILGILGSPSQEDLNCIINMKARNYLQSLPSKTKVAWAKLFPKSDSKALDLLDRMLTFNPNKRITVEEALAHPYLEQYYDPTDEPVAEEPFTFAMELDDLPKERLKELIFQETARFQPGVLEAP

[16] = target: ProfilerPro Kinase Selectivity Assay Kit kinases (Homo sapiens, UniProt P28482); settings: ERK2; 1 μM compound concentration
[17] = target: ProfilerPro Kinase Selectivity Assay Kit kinases (Homo sapiens, UniProt P31749); settings: AKT1; 1 μM compound concentration
[18] = target: ProfilerPro Kinase Selectivity Assay Kit kinases (Homo sapiens, UniProt P31751); settings: AKT2; 1 μM compound concentration
[19] = target: ProfilerPro Kinase Selectivity Assay Kit kinases (Homo sapiens, UniProt P35968); settings: KDR; 1 μM compound concentration
[20] = target: ProfilerPro Kinase Selectivity Assay Kit kinases (Homo sapiens, UniProt P43405); settings: SYK; 1 μM compound concentration
[21] = target: ProfilerPro Kinase Selectivity Assay Kit kinases (Homo sapiens, UniProt P48730); settings: CK1 delta; 1 μM compound concentration
[22] = target: ProfilerPro Kinase Selectivity Assay Kit kinases (Homo sapiens, UniProt P49137); settings: MAPKAPK2; 1 μM compound concentration
[23] = target: ProfilerPro Kinase Selectivity Assay Kit kinases (Homo sapiens, UniProt P49841); settings: GSK3 beta; 1 μM compound concentration
[24] = target: ProfilerPro Kinase Selectivity Assay Kit kinases (Homo sapiens, UniProt Q06187); settings: BTK; 1 μM compound concentration
ProfilerPro Kinase Selectivity Assay Kit kinases (Homo sapiens, UniProt Q06187), sequence (Q06187 2-659 limits assumed): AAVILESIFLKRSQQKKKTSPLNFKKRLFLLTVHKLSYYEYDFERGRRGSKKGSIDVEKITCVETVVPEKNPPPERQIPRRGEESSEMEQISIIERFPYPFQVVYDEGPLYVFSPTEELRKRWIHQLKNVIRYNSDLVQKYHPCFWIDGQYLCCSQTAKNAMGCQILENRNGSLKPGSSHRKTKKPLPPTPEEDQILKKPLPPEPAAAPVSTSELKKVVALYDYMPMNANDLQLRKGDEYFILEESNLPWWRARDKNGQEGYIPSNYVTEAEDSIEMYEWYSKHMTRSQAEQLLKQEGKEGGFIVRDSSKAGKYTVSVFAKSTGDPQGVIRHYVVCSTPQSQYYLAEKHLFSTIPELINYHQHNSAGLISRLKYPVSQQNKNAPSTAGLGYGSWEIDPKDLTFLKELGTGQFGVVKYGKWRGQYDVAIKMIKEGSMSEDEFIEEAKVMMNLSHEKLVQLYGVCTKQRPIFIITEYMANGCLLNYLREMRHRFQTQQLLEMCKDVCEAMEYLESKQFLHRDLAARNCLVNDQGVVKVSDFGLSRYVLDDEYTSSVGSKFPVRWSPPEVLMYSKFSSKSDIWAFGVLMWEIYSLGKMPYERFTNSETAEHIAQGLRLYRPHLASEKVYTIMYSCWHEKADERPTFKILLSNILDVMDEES

[25] = target: ProfilerPro Kinase Selectivity Assay Kit kinases (Homo sapiens, UniProt Q13177); settings: PAK2; 1 μM compound concentration
ProfilerPro Kinase Selectivity Assay Kit kinases (Homo sapiens, UniProt Q13177), sequence (Q13177 2-524 limits assumed): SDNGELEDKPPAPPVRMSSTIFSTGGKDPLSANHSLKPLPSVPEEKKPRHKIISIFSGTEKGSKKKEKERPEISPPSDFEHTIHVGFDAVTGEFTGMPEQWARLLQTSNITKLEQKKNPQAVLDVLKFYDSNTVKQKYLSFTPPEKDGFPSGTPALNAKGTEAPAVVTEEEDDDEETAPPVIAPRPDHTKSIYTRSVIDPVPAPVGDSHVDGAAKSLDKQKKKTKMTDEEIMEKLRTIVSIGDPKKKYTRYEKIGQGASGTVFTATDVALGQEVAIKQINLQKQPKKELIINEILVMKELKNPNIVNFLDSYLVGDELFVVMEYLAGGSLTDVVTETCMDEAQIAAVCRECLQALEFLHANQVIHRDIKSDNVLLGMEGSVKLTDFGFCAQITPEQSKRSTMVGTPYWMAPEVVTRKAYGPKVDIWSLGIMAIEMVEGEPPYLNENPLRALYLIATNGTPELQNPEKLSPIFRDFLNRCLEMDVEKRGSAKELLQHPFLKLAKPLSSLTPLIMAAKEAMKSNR

[26] = target: ProfilerPro Kinase Selectivity Assay Kit kinases (Homo sapiens, UniProt Q13188); settings: MST2; 1 μM compound concentration
[27] = target: ProfilerPro Kinase Selectivity Assay Kit kinases (Homo sapiens, UniProt Q16539); settings: p38 alpha; 1 μM compound concentration
ProfilerPro Kinase Selectivity Assay Kit kinases (Homo sapiens, UniProt Q16539), sequence (Q16539 2-360 limits assumed): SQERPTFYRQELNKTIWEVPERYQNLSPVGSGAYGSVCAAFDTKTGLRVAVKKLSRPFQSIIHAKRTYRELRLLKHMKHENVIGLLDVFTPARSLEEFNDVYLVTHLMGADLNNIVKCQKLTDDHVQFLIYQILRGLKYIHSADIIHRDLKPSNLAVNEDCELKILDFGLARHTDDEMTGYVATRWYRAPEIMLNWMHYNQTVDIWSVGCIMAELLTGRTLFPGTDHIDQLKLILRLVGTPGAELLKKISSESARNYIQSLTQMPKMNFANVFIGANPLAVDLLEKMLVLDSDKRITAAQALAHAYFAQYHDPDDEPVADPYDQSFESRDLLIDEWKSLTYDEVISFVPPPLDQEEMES

[28] = target: ProfilerPro Kinase Selectivity Assay Kit kinases (Homo sapiens, UniProt Q16566); settings: CAMK4; 1 μM compound concentration
[29] = target: ProfilerPro Kinase Selectivity Assay Kit kinases (Homo sapiens, UniProt Q8IW41); settings: PRAK; 1 μM compound concentration
[30] = target: ProfilerPro Kinase Selectivity Assay Kit kinases (Homo sapiens, UniProt Q9BZL6); settings: PKD2; 1 μM compound concentration
[31] = target: ProfilerPro Kinase Selectivity Assay Kit kinases (Homo sapiens, UniProt Q9P0L2); settings: MARK1; 1 μM compound concentration

POC (Percent of control) SGK1 [1] [POC] | POC (Percent of control) CHK1 [2] [POC] | POC (Percent of control) ROCK2 [3] [POC] | POC (Percent of control) MSK1 [4] [POC] | POC (Percent of control) HGK [5] [POC] | POC (Percent of control) CHK2 [6] [POC] | POC (Percent of control) ABL [7] [POC] | POC (Percent of control) cRAF [8] [POC] | POC (Percent of control) LCK [9] [POC] | POC (Percent of control) FYN [10] [POC] | POC (Percent of control) LYN [11] [POC] | POC (Percent of control) IGF1R [12] [POC] | POC (Percent of control) cMET [13] [POC] | POC (Percent of control) PKA alpha [14] [POC] | POC (Percent of control) ERK1 [15] [POC] | POC (Percent of control) ERK2 [16] [POC] | POC (Percent of control) AKT1 [17] [POC] | POC (Percent of control) AKT2 [18] [POC] | POC (Percent of control) KDR [19] [POC] | POC (Percent of control) SYK [20] [POC] | Compound | other results
89 | 92 | 93 | 76 | 91 | 99 | 81 | 56 | 61 | 87 | 55 | 82 | 102 | 16 | 103 | 104 | 50 | 74 | 86 | 95 | Cc1cnc(Nc2cccc3[nH]ncc23)c(-c2nc(C)nc(N)n2)c1 [Example 47, N-(3-(4-Amino-6-Methyl-1,3,5-Triazin-2-yl)-5-Methylpyridine-2-yl)-1H-Indazol-4-Amine] | POC (Percent of control) CK1 delta [21]: 69 POC; POC (Percent of control) MAPKAPK2 [22]: 101 POC; POC (Percent of control) GSK3 beta [23]: 97 POC; POC (Percent of control) BTK [24]: 93 POC; POC (Percent of control) PAK2 [25]: 99 POC; POC (Percent of control) MST2 [26]: 101 POC; POC (Percent of control) p38 alpha [27]: 91 POC; POC (Percent of control) CAMK4 [28]: 91 POC; POC (Percent of control) PRAK [29]: 103 POC; POC (Percent of control) PKD2 [30]: 113 POC; POC (Percent of control) MARK1 [31]: 107 POC
92 | 106 | 95 | 101 | 93 | 98 | 94 | 100 | 96 | 103 | 95 | 77 | 100 | 100 | 100 | 97 | 102 | 98 | 90 | 100 | Cc1nc(-c2cccnc2Nc2cccc3[nH]ncc23)c2nc[nH]c2n1 [Example 57, N-(3-(2-methyl-9H-purin-6-yl)pyridin-2-yl)-1H-indazol-4-amine] | POC (Percent of control) CK1 delta [21]: 55 POC; POC (Percent of control) MAPKAPK2 [22]: 99 POC; POC (Percent of control) GSK3 beta [23]: 101 POC; POC (Percent of control) BTK [24]: 98 POC; POC (Percent of control) PAK2 [25]: 95 POC; POC (Percent of control) MST2 [26]: 95 POC; POC (Percent of control) p38 alpha [27]: 100 POC; POC (Percent of control) CAMK4 [28]: 93 POC; POC (Percent of control) PRAK [29]: 100 POC; POC (Percent of control) PKD2 [30]: 97 POC; POC (Percent of control) MARK1 [31]: 99 POC
97 | 101 | 100 | 98 | 104 | 99 | 99 | 99 | 98 | 103 | 100 | 92 | 103 | 96 | 101 | 103 | 106 | 96 | 93 | 86 | COc1ccc(Nc2ncccc2-c2nc(C)nc3[nH]cnc23)cn1 [Example 58, N-(6-methoxypyridin-3-yl)-3-(2-methyl-9H-purin-6-yl)pyridin-2-amine] | POC (Percent of control) CK1 delta [21]: 104 POC; POC (Percent of control) MAPKAPK2 [22]: 96 POC; POC (Percent of control) GSK3 beta [23]: 101 POC; POC (Percent of control) BTK [24]: 102 POC; POC (Percent of control) PAK2 [25]: 102 POC; POC (Percent of control) MST2 [26]: 100 POC; POC (Percent of control) p38 alpha [27]: 98 POC; POC (Percent of control) CAMK4 [28]: 95 POC; POC (Percent of control) PRAK [29]: 84 POC; POC (Percent of control) PKD2 [30]: 92 POC; POC (Percent of control) MARK1 [31]: 146 POC
108 | 101 | 101 | 98 | 94 | 98 | 103 | 101 | 98 | 104 | 97 | 93 | 102 | 102 | 99 | 101 | 109 | 96 | 97 | 97 | CCc1cnc(Nc2ccc(OC)nc2)c(-c2nc(C)nc3[nH]cnc23)c1 [Example 74, 5-ethyl-N-(6-methoxypyridin-3-yl)-3-(2-methyl-9H-purin-6-yl)pyridin-2-amine] | POC (Percent of control) CK1 delta [21]: 97 POC; POC (Percent of control) MAPKAPK2 [22]: 100 POC; POC (Percent of control) GSK3 beta [23]: 100 POC; POC (Percent of control) BTK [24]: 99 POC; POC (Percent of control) PAK2 [25]: 94 POC; POC (Percent of control) MST2 [26]: 98 POC; POC (Percent of control) p38 alpha [27]: 101 POC; POC (Percent of control) CAMK4 [28]: 95 POC; POC (Percent of control) PRAK [29]: 97 POC; POC (Percent of control) PKD2 [30]: 99 POC; POC (Percent of control) MARK1 [31]: 111 POC
